Measured values reported in ChEMBL document CHEMBL1123967, “New potent antagonists of leukotrienes C4 and D4. 1. Synthesis and structure-activity relationships” (J Med Chem, 1988).

Biological target: T1, Cysteinyl leukotriene receptor (Homo sapiens, UniProt Q9Y271+Q9NS75)
T1 sequence (Q9Y271 whole entry): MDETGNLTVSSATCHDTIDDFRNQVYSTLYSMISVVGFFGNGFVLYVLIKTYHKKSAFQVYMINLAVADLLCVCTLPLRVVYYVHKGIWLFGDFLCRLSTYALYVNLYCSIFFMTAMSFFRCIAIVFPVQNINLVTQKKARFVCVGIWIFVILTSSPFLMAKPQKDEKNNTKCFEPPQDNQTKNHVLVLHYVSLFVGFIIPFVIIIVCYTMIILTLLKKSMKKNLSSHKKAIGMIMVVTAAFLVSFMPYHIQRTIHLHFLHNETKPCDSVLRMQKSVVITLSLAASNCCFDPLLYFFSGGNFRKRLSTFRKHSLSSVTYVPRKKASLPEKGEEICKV
T1 sequence (Q9NS75 whole entry): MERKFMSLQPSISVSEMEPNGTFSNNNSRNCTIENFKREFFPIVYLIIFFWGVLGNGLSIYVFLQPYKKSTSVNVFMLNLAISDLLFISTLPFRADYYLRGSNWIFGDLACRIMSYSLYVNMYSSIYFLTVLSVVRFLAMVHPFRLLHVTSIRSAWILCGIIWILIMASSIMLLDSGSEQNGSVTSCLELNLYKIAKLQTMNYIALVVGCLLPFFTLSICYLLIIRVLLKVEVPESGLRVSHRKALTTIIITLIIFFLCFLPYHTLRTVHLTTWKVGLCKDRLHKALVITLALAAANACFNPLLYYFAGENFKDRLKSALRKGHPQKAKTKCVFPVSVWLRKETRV
Test: Inhibition of LTC4 induced smooth muscle contraction of guinea pig ileum
Assay type: functional, tissue-based, Cavia porcellus
Conditions: target entry is the homologue from another species

| Compound | IC50 |
| --- | --- |
| CCCCCc1ccc(/C=C/C(=O)Nc2cccc3cc(-c4nn[nH]n4)oc23)cc1 | 3100 nM |
| CCCCCCc1ccc(C(=O)Nc2cccc3c(=O)cc(-c4nn[nH]n4)oc23)cc1 | 15 nM |
| CCC/C=C/COc1ccc(C(=O)Nc2cccc3c2OC(c2nnn[nH]2)CO3)cc1 (configuration not stated) | 4.3 nM |
| CCCCCC#CCOc1ccc(C(=O)Nc2cccc3c(=O)cc(-c4nn[nH]n4)oc23)cc1 | 0.14 nM |
| CCCCCC#CCOc1ccc(C(=O)Nc2cccc3c2OC(c2nnn[nH]2)CO3)cc1 (configuration not stated) | 0.67 nM |
| O=C(Nc1cccc2c1OC(c1nnn[nH]1)CO2)c1ccc(OCCCc2ccccc2)cc1 (configuration not stated) | 20 nM |
| CCCCCCCCCc1ccc(/C=C/C(=O)Nc2cccc3c2OC(c2nnn[nH]2)CO3)cc1 (configuration not stated) | 3200 nM |
| CCCCCCc1ccc(C(=O)Nc2cccc3c2OC(c2nnn[nH]2)CO3)cc1 (configuration not stated) | 210 nM |
| CCCOc1ccc(C(=O)Nc2cccc3c2OC(c2nnn[nH]2)CO3)cc1 (configuration not stated) | 2200 nM |
| O=C(Nc1cccc2c1OC(c1nnn[nH]1)CO2)c1ccc(OCCc2ccccc2)cc1 (configuration not stated) | 62 nM |
| CCCCCc1ccc(/C=C/C(=O)Nc2ccccc2OCC(=O)O)cc1 | 9000 nM |
| CCCCCCCCCOc1ccc(C(=O)Nc2cccc3c2OC(c2nnn[nH]2)CO3)cc1 (configuration not stated) | 20 nM |
| CCCCCc1ccc(/C=C/C(=O)Nc2cccc3c2OC(c2nnn[nH]2)CO3)cc1 (configuration not stated) | 370 nM |
| CCCCCCCc1ccc(/C=C/C(=O)Nc2cccc3c(=O)cc(-c4nn[nH]n4)oc23)cc1 | 100 nM |
| CCCCCCCCc1ccc(C(=O)Nc2cccc3c2OC(c2nnn[nH]2)CO3)cc1 (configuration not stated) | 100 nM |
| O=C(Nc1cccc2c1OC(c1nnn[nH]1)CO2)c1ccc(OCCCCCc2ccccc2)cc1 (configuration not stated) | 11 nM |
| CCCCCc1ccc(/C=C/C(=O)Nc2cccc3c(=O)cc(C(=O)O)oc23)cc1 | 240 nM |
| CCCCCc1ccc(/C=C/C(=O)Nc2cccc3ccc(-c4nn[nH]n4)nc23)cc1 | 1000 nM |
| CCCCCc1ccc(C(=O)Nc2cccc3c(=O)cc(-c4nn[nH]n4)oc23)cc1 | 180 nM |
| CCCCCCCc1ccc(C(=O)Nc2cccc3c(=O)cc(-c4nn[nH]n4)oc23)cc1 | 4.2 nM |
| CCCCCOc1ccc(/C=C/C(=O)Nc2cccc3c2OC(c2nnn[nH]2)CO3)cc1 (configuration not stated) | 120 nM |
| CCCCCCc1ccc(/C=C/C(=O)Nc2cccc3c2OC(c2nnn[nH]2)CO3)cc1 (configuration not stated) | 140 nM |
| CCCCCCCCOc1ccc(C(=O)Nc2cccc3c2OC(c2nnn[nH]2)CO3)cc1 (configuration not stated) | 14 nM |
| CCCCOc1ccc(/C=C/C(=O)Nc2cccc3c2OC(c2nnn[nH]2)CO3)cc1 (configuration not stated) | 120 nM |

| Compound | IC50 |
| --- | --- |
| CCCCCCCCOc1ccc(/C=C/C(=O)Nc2cccc3c2OC(c2nnn[nH]2)CO3)cc1 (configuration not stated) | 215 nM |
| CCCCCc1ccc(/C=C/C(=O)Nc2cccc3c(=O)cc(-c4nn[nH]n4)oc23)cc1 | 30 nM |
| CCCCCCOc1ccc(/C=C/C(=O)Nc2cccc3c(=O)cc(-c4nn[nH]n4)oc23)cc1 | 18 nM |
| CCCCCCCOc1ccc(/C=C/C(=O)Nc2cccc3c2OC(c2nnn[nH]2)CO3)cc1 (configuration not stated) | 88 nM |
| CCCCCOc1cccc(C(=O)Nc2cccc3c2OC(c2nnn[nH]2)CO3)c1 (configuration not stated) | 5000 nM |
| CCCCCc1ccc(/C=C/C(=O)Nc2ccccc2OCc2nn[nH]n2)cc1 | 3000 nM |
| CCCCCc1ccccc1/C=C/C(=O)Nc1cccc2c1OC(c1nnn[nH]1)CO2 (configuration not stated) | 2150 nM |
| CCCCCc1ccc(/C=C/C(=O)Nc2cccc3c2OC(C(=O)O)CO3)cc1 (configuration not stated) | 830 nM |
| CCCCCCOc1ccc(C(=O)Nc2cccc3c2OC(c2nnn[nH]2)CO3)cc1 (configuration not stated) | 13 nM |
| CCCCc1ccc(/C=C/C(=O)Nc2cccc3c(=O)cc(-c4nn[nH]n4)oc23)cc1 | 34 nM |
| CCCCOc1ccc(C(=O)Nc2cccc3c2OC(c2nnn[nH]2)CO3)cc1 (configuration not stated) | 220 nM |
| CCCCCc1ccc(/C=C/C(=O)Nc2cccc3ccc(-c4nn[nH]n4)cc23)cc1 | 300 nM |
| CCCCCCCc1ccc(/C=C/C(=O)Nc2cccc3c2OC(c2nnn[nH]2)CO3)cc1 (configuration not stated) | 350 nM |
| CCCCCOc1ccccc1/C=C/C(=O)Nc1cccc2c1OC(c1nnn[nH]1)CO2 (configuration not stated) | 2300 nM |
| CCCCCCCCc1ccc(/C=C/C(=O)Nc2cccc3c2OC(c2nnn[nH]2)CO3)cc1 (configuration not stated) | 580 nM |
| CCCCCOc1ccc(C(=O)Nc2cccc3c(=O)cc(-c4nn[nH]n4)oc23)cc1 | 53 nM |
| CCCCCCCCCCOc1ccc(C(=O)Nc2cccc3c2OC(c2nnn[nH]2)CO3)cc1 (configuration not stated) | 300 nM |
| CCCCCC/C=C/COc1ccc(C(=O)Nc2cccc3c2OC(c2nnn[nH]2)CO3)cc1 (configuration not stated) | 5.2 nM |
| CCCCCc1ccccc1C(=O)Nc1cccc2c1OC(c1nnn[nH]1)CO2 (configuration not stated) | 40000 nM |
| CCCCOc1ccc(C(=O)Nc2cccc3c(=O)cc(-c4nn[nH]n4)oc23)cc1 | 5 nM |
| CCCCCCCCCCc1ccc(/C=C/C(=O)Nc2cccc3c2OC(c2nnn[nH]2)CO3)cc1 (configuration not stated) | 1100 nM |
| CCCCCOc1ccccc1C(=O)Nc1cccc2c1OC(c1nnn[nH]1)CO2 (configuration not stated) | 9400 nM |
| CCCCCc1ccc(/C=C/C(=O)Nc2ccccc2CC(=O)O)cc1 | 20000 nM |
| CCCCCOc1cccc(/C=C/C(=O)Nc2cccc3c2OC(c2nnn[nH]2)CO3)c1 (configuration not stated) | 150 nM |

| Compound | IC50 |
| --- | --- |
| CCCCCCOc1ccc(C(=O)Nc2cccc3c(=O)cc(-c4nn[nH]n4)oc23)cc1 | 0.86 nM |
| CCCCc1ccc(/C=C/C(=O)Nc2cccc3c2OC(c2nnn[nH]2)CO3)cc1 (configuration not stated) | 220 nM |
| CCCCCCCCc1ccc(C(=O)Nc2cccc3c(=O)cc(-c4nn[nH]n4)oc23)cc1 | 5.5 nM |
| CCCCCCOc1ccc(/C=C/C(=O)Nc2cccc3c2OC(c2nnn[nH]2)CO3)cc1 (configuration not stated) | 21 nM |
| CCCCCCCCCOc1ccc(C(=O)Nc2cccc3c(=O)cc(-c4nn[nH]n4)oc23)cc1 | 7.4 nM |
| CCCCCc1ccc(C(=O)Nc2cccc3c2OC(c2nnn[nH]2)CO3)cc1 (configuration not stated) | 2600 nM |
| CCCCCCCCCc1ccc(C(=O)Nc2cccc3c(=O)cc(-c4nn[nH]n4)oc23)cc1 | 7 nM |
| CCCCCCCCCc1ccc(C(=O)Nc2cccc3c2OC(c2nnn[nH]2)CO3)cc1 (configuration not stated) | 160 nM |
| CCCCCc1ccc(/C=C/C(=O)Nc2ccccc2C(=O)O)cc1 | 14000 nM |
| CCCOc1ccc(/C=C/C(=O)Nc2cccc3c2OC(c2nnn[nH]2)CO3)cc1 (configuration not stated) | 660 nM |
| CCCCCCc1ccc(/C=C/C(=O)Nc2cccc3c(=O)cc(-c4nn[nH]n4)oc23)cc1 | 32 nM |
| CCCCCOc1ccc(C(=O)Nc2cccc3c2OC(c2nnn[nH]2)CO3)cc1 (configuration not stated) | 100 nM |
| CCCc1ccc(/C=C/C(=O)Nc2cccc3c2OC(c2nnn[nH]2)CO3)cc1 (configuration not stated) | 490 nM |
| CCC/C=C/COc1ccc(C(=O)Nc2cccc3c(=O)cc(-c4nn[nH]n4)oc23)cc1 | 1.5 nM |
| CCCCCc1ccc(/C=C/C(=O)Nc2cccc3c2OC(c2nnn[nH]2)C3)cc1 (configuration not stated) | 6900 nM |
| CCCCCCCCOc1ccc(C(=O)Nc2cccc3c(=O)cc(-c4nn[nH]n4)oc23)cc1 | 5.5 nM |
| CCCCc1ccc(C(=O)Nc2cccc3c2OC(c2nnn[nH]2)CO3)cc1 (configuration not stated) | 1500 nM |
| CCCCCCCCCCc1ccc(C(=O)Nc2cccc3c2OC(c2nnn[nH]2)CO3)cc1 (configuration not stated) | 500 nM |
| CCCCCCCOc1ccc(C(=O)Nc2cccc3c(=O)cc(-c4nn[nH]n4)oc23)cc1 | 0.5 nM |
| O=C(Nc1cccc2c(=O)cc(-c3nn[nH]n3)oc12)c1ccc(OCCCc2ccccc2)cc1 | 0.96 nM |
| CCCCCCCOc1ccc(/C=C/C(=O)Nc2cccc3c(=O)cc(-c4nn[nH]n4)oc23)cc1 | 140 nM |
| CC/C=C/COc1ccc(C(=O)Nc2cccc3c2OC(c2nnn[nH]2)CO3)cc1 (configuration not stated) | 150 nM |
| CCCCCCCc1ccc(C(=O)Nc2cccc3c2OC(c2nnn[nH]2)CO3)cc1 (configuration not stated) | 70 nM |

Biological target: Cysteinyl leukotriene receptor (Homo sapiens) (UniProt Q9Y271+Q9NS75)
Test: In vivo inhibition of LTD4-induced bronchoconstriction in anesthetized guinea pig.
Assay type: functional, organism-based
Conditions: Cavia porcellus; target entry is the homologue from another species

| Compound | ID50 |
| --- | --- |
| CCC/C=C/COc1ccc(C(=O)Nc2cccc3c2OC(c2nnn[nH]2)CO3)cc1 (configuration not stated) | 0.0135 mg/kg |
| CCCCCC#CCOc1ccc(C(=O)Nc2cccc3c(=O)cc(-c4nn[nH]n4)oc23)cc1 | 0.0011 mg/kg |
| CCCCCC#CCOc1ccc(C(=O)Nc2cccc3c2OC(c2nnn[nH]2)CO3)cc1 (configuration not stated) | 0.0064 mg/kg |
| CCCCCc1ccc(/C=C/C(=O)Nc2ccccc2OCC(=O)O)cc1 | 4.2 mg/kg |
| CCCCCc1ccc(/C=C/C(=O)Nc2cccc3c2OC(c2nnn[nH]2)CO3)cc1 (configuration not stated) | 0.33 mg/kg |
| CCCCCc1ccc(/C=C/C(=O)Nc2cccc3c(=O)cc(C(=O)O)oc23)cc1 | 0.32 mg/kg |
| CCCCCc1ccc(/C=C/C(=O)Nc2cccc3c(=O)cc(-c4nn[nH]n4)oc23)cc1 | 0.014 mg/kg |
| CCCCCc1ccc(/C=C/C(=O)Nc2ccccc2OCc2nn[nH]n2)cc1 | 0.5 mg/kg |
| CCCCCc1ccc(/C=C/C(=O)Nc2cccc3c2OC(C(=O)O)CO3)cc1 (configuration not stated) | 0.22 mg/kg |
| CCCCCC/C=C/COc1ccc(C(=O)Nc2cccc3c2OC(c2nnn[nH]2)CO3)cc1 (configuration not stated) | 0.0041 mg/kg |
| CCCCCc1ccc(/C=C/C(=O)Nc2ccccc2C(=O)O)cc1 | 4.5 mg/kg |
